Experimental data from US20180055887A1, “METHOD FOR PREPARING INDUCED MESENCHYMAL STEM CELLS AND IMPROVING MESENCHYMAL STEM CELL'S CHARACTERS AND ITS APPLICATIONS” (ACADEMIA SINICA, priority 2016, published 2018).
Marks after values point to notes of the source that are not given here.

Assays:
[1] = test system: Human primary neonatal foreskin fibroblasts (CRL2097); test: Generation of iMSCs from fibroblasts by chemical treatment, flow cytometry for SSEA-4 and PODXL; assay type: cell-based; conditions: for Percentage of cells with both SSEA-4 and PODXL: CRL2097 fibroblasts, DMEM only 0.1%; for iMSC generation from fibroblasts (in words): SSEA-4+PODXL+ population by flow cytometry, without growth factors
Method: For iMSC dedifferentiation from human fibroblasts, primary fibroblasts were cultured in DMEM-HG for 2 days. The culture medium was then replaced with medium containing different chemical(s), with or without growth factor(s), for 3 to 21 days (FIG. 1A). Cells were cultured at 37° C. under 5% CO2.
Cells were then analyzed by FACSCanto (Becton Dickinson, Franklin Lakes, N.J., USA). SSEA-4 and PODXL double positive cells were isolated using a cell sorter (FACS Aria II, BD Biosciences).
After culture, the cells treated by the chemical cocktail were examined by flow cytometry.
Human primary neonatal foreskin fibroblasts (CRL2097) were cultured in DMEM medium only (as a negative control) or in DMEM medium containing a GSK3β inhibitor (CHIR99021, 3 μM) or a protein kinase C inhibitor (Go6983, 5 μM), and the percentage of the cells converted to iMSCs, co-expressing SSEA-4 and PODXL, were determined by flow cytometer.
Additional combinations of chemicals were analyzed for their activities to generate iMSCs from fibroblasts and the percentage of the cells converted to iMSCs, co-expressing SSEA-4 and PODXL, were determined by flow cytometer.

BMMSCs = test: Improvement of multipotency of MSCs: percentage of MSC markers SSEA-4 and PODXL by flow cytometer; assay type: cell-based, human; conditions: treatment of BMMSCs
Method: For cell surface marker analysis, BMMSCs, iMSCs, and fibroblasts were incubated with FITC-conjugated anti-human SSEA-4 (clone MC-813-70; eBiosciences, San Diego, Calif., USA) and PE-conjugated anti-human PODXL (clone B34D1.3; eBiosciences) antibodies. Cells were then analyzed by FACSCanto (Becton Dickinson, Franklin Lakes, N.J., USA). SSEA-4 and PODXL double positive cells were isolated using a cell sorter (FACS Aria II, BD Biosciences).
BBMSCs were cultured in conversion medium for 6 days, without chemical treatment (control) or with treatment of chemical cocktails (6C+3GF), including six chemical kinase(6C) inhibitors i.e. a p38 inhibitor (5B202190), a JNK inhibitor (SP600125), a protein kinase C inhibitor (Go6983), a ROCK inhibitor (Y-27632), a ERK1/2 inhibitor (PD0325901) and a GSK3β inhibitor (CHIR99021) and three growth factors i.e. a leukemia inhibitory factor (LIF), a basic fibroblast growth factor (bFGF) and a transforming growth factor-β (TGF-β). In other conditions, MSCs were cultured with chemicals cocktails (six, seven or eight chemicals) without the growth factors. The percentages of the MSC markers, SSEA-4 and PODXL, were determined by flow cytometer. Six chemicals (6C) includes a p38 inhibitor (SB202190), a JNK inhibitor (SP600125), a protein kinase C inhibitor (Go6983), a ROCK inhibitor (Y-27632), a ERK1/2 inhibitor (PD0325901) and a GSK3β inhibitor (CHIR99021). […]

[2] = Table 2: other factors or a combination, tested in the same manner

Compound | Percentage of cells with both SSEA-4 and PODXL [1, 2] | also measured
O=C1O[C@H]([C@@H](O)CO)C(O)=C1O [VitC, ascorbic acid] | 0.60% | –
Cc1cnc(-c2cnc(NCCNc3ccc(C#N)cn3)nc2-c2ccc(Cl)cc2Cl)[nH]1 [CHIR99021, 6-[(2-{[4-(2,4-Dichlorophenyl)-5-(5-methyl-1H-imidazol-2-yl)-2-pyrimidinyl]amino}ethyl)amino]nicotinonitrile] | – | iMSC generation from fibroblasts (in words) [1]: effective in iMSC generation; Percentage of cells with both SSEA-4 and PODXL ([1]; Table 1: single factor in DMEM medium, CHIR99021 3 μM, Go6983 5 μM): 0.9%; Percentage of cells with both SSEA-4 and PODXL ([1]; Table 1: single factor in DMEM medium, CHIR99021 3 μM, Go6983 5 μM, listed as CHIR99201): 0.90%*
CCCC(=O)[O-].[Na+] [Sodium butyrate] | 0.70% | –
NC(=O)c1ccc(-c2nc(-c3ccc4c(c3)OCO4)c(-c3ccccn3)[nH]2)cc1 [SB431542] | 0.40% | –
COc1cc2nc(N3CCCN(C)CC3)nc(NC3CCN(Cc4ccccc4)CC3)c2cc1OC [BIX01294] | 0.30% | –
O=S(=O)(c1cccc2cnccc12)N1CCCNCC1 [Fasudil] | 0.20% | –
CCCC(CCC)C(=O)O [VPA, 2-Propylpentanoic acid] | 0.2% | –
C[S+]([O-])c1ccc(-c2nc(-c3ccc(F)cc3)c(-c3ccncc3)[nH]2)cc1 (stereo not shown) [SB203580] | 0.10% | –
N[C@@H](CCC(=O)N[C@@H](CS)C(=O)NCC(=O)O)C(=O)O [GSH, Glutathione] | 0.40% | –
C[C@@H](N)[C@H]1CC[C@H](C(=O)Nc2ccncc2)CC1 [Y27632] | 0.50% | –
COc1ccc2c(c1)c(C1=C(c3c[nH]c4ccccc34)C(=O)NC1=O)cn2CCCN(C)C [Go6983, 3-{1-[3-(Dimethylamino)propyl]-5-methoxy-1H-indol-3-yl}-4-(1H-indol-3-yl)-1H-pyrrole-2,5-dione] | – | iMSC generation from fibroblasts (in words) [1]: effective in iMSC generation; expression of functional markers of BMSCs (in words) (BMMSCs): can effectively increase the expression of functional markers
Cc1cccc(-c2n[nH]cc2-c2ccc3ncccc3n2)n1 [Repsox, 2-[3-(6-Methyl-2-pyridinyl)-1H-pyrazol-4-yl]-1,5-naphthyridine] | 0.40% | –
c1cc(-c2cnn3cc(-c4ccc(OCCN5CCCCC5)cc4)cnc23)ccn1 [Dorsomorphin, 6-[4-(2-Piperidin-1-yl-ethoxy)-phenyl]-3-pyridin-4-yl-pyrrazolo[1,5,-α]pyrimidine] | 0.10% | Percentage of cells with both SSEA-4 and PODXL ([1]; Table 2: other factors or a combination, tested in the same manner, listed as dorsomorphin): 0.1%
O=c1cc(N2CCOCC2)oc2c(-c3ccccc3)cccc12 [LY294002] | 0.80% | –
O=C(NOC[C@@H](O)CO)c1ccc(F)c(F)c1Nc1ccc(I)cc1F [PD0325901, N-[(2S)-2,3-Dihydroxypropoxy]-3,4-difluoro-2-[(2-fluoro-4-iodophenyl)amino]benzamide] | 0.40% | –
O=C(NCc1ccccc1)c1csc(Nc2ccncn2)n1 [Thiazovivin] | 0.80% | Percentage of cells with both SSEA-4 and PODXL ([1]; Table 2: other factors or a combination, tested in the same manner, listed as thiazovivin): 0.8%
O=C1c2ccccc2-c2n[nH]c3cccc1c23 [SP600125] | 0.20% | –
COc1ccc(C2CNC(=O)C2)cc1OC1CCCC1 (stereo not shown) [Rolipram] | 0.30% | –
CC(=O)N[C@@H](CS)C(=O)O [NAC, N-Acetylcysteine] | 0.50% | –
Cc1nc(Nc2ncc(C(=O)Nc3c(C)cccc3Cl)s2)cc(N2CCN(CCO)CC2)n1 [Dasatinib] | 0.40% | –
Oc1ccc(-c2nc(-c3ccncc3)c(-c3ccc(F)cc3)[nH]2)cc1 [SB202190] | 0.10% | –
CC(C)N(CCCNC(=O)Nc1ccc(C(C)(C)C)cc1)C[C@H]1O[C@@H](n2cc(Br)c3c(N)ncnc32)[C@H](O)[C@@H]1O [SGC0946, 5-Bromo-7-(5-deoxy-5-{isopropyl[3-({[4-(2-methyl-2-propanyl)phenyl]carbamoyl}amino)propyl]amino}-β-D-ribofuranosyl)-7H-pyrrolo[2,3-d]pyrimidin-4-amine] | 0.20% | –
CO[C@H]1C[C@@H]2CC[C@@H](C)[C@@](O)(O2)C(=O)C(=O)N2CCCC[C@H]2C(=O)O[C@H]([C@H](C)C[C@@H]2CC[C@@H](O)[C@H](OC)C2)CC(=O)[C@H](C)/C=C(\C)[C@@H](O)[C@@H](OC)C(=O)[C@H](C)C[C@H](C)/C=C/C=C/C=C/1C [Rapamycin, (1R,9S,12S,15R,16E,18R,19R,21R,23S,24E,26E,28E,30S,32S,35R)-1,18-Dihydroxy-12-{(2R)-1-[(1S,3R,4R)-4-hydroxy-3-methoxycyclohexyl]-2-propanyl}-19,30-dimethoxy-15,17,21,23,29,35-hexamethyl-11,36-dioxa-4-azatricyclo[30.3.1.0~4,9~]hexatriaconta-16,24,26,28-tetraene-2,3,10,14,20-pentone] | 0.20% | –
